Laboratory results published in patent US4742155A, “Plipastatin and method for preparation thereof” (Zaidan Hojin Biseibutsu Kagaku Kenkyu Kai, priority 1984, dated 1988).
Entries after “also recorded” stand apart in the source; their conditions may differ. Bridge positions count the residues as written; N and C are the ends. Square brackets hold non-standard residues; d marks the D form. Peptide text beside a SMILES is read from it. * marks the point of attachment. Hexadecanoyl(3R-OH) = CCCCCCCCCCCCC[C@@H](O)CC(=O)*; d(aThr) = C[C@@H](O)[C@@H](N)C(=O)O; dOrn = NCCC[C@@H](N)C(=O)O

Assays:
[1] = target: phospholipase D (derived from cabbage); assay: Inhibition of phospholipase D (antiphospholipase D activity, 14C-DPC); format: biochemical; conditions: Table 2
Text: The monitoring of the production of Plipastatin through the cultivation and purification steps is accomplished by measuring the antiphospholipase D activity in accordance with the following method.
Two layers are separated by centrifugation.

[2] = Solubility; format: physicochemical; conditions: potassium salts (Table 1)
Procedure: (All measurements were carried out using potassium salts of the compounds unless otherwise specified.)

[3] = mouse, in vivo, ip
[4] = target: phospholipase A2
Procedure: (§1) The measurement of the antiphospholipase D activity is carried out by the method of Okuyama et al. described in A. Okuyama, T. Nishikiori, T. Aoyagi and H. Umezawa, Biochemistry international, 4, 417, 1982. Dipalmitoylphosphatidyl choline (DPC) (200 mM) and cholin-methyl-^14 C-DPC (4×10^4 dpm) are suspended ultrasonically in 390 μl of 50 mM tris-hydrochloric acid buffer (pH 5.7) containing 1 mM calcium chloride. To the resulting suspension is added 10 μl of a solution containing the sample to be tested. To the resulting mixture is added 100 μl of a solution of commercially available phospholipase D (derived from cabbage) and reacted at 37° C. for 20 minutes. The reaction is quenched by addition of 1.5 ml of a mixture of chloroform, methanol and conc. hydrochloric acid (2:1:0.02 v/v). To this mixture is then added 1 ml of 50% methanol containing […] potassium chloride and the mixture is stirred. Two layers are separated by centrifugation. The radioactivity (a) of choline liberated from the upper layer by the enzyme is measured. Also, the radioactivity (b) of the buffer free from the sample is measured as a blank test. The percentage inhibition of phospholipase activity is calculated according to the following formula: [(b-a)/b]×100.
(§2) IC50 values correspond to the concentration of the samples giving a 50% inhibition.
(§3) The measurement of the inhibition of phospholipase was accomplished by the method of Okuyama et al. set forth above.

[5] = target: phospholipase C
Procedure: as §1, §2, §3

[6] = system: LPS-stimulated B-lymphocytes; assay: Reaction of B-lymphocyte blastogenesis, [3H]-thymidine uptake; format: cell-based, BALB/c mice; conditions: 100 μg/ml (given for Plipastatin A1; not given for B1); 100 μg/ml LPS, 72 hours
Procedure: (§4) This experiment illustrates the suppressive effects of Plipastatin on the reaction of lymphocyte blastogenesis.
(§5) The reaction of lymphocyte blastogenesis was evaluated in terms of the incorporation of [^3 H]-thymidine in the DNA synthesis by both T-cells and B-cells stimulated with concanavalin A (hereunder referred to as Con A) and lipopolysaccharide of E. coli 055:B5. (Reference "Meneki Jikken Sosaho", or "Immunological Experiments Manual", pp. 2267-2276, The Japanese Society for Immunology).
(§6) In the reaction of T-lymphocyte blastogenesis, the T-cells were obtained by passing spleen cells of BALB/c mice (19 weeks old) through a nylon column to remove adsorptive cells and by then cultivating the resulting spleen cells in a plastic Petri dish for one hour to eliminate the remaining adsorptive cells. The cultivation of the T-cells was conducted in wells of a Falcon microtest plate using RPMI 1640 medium containing 20% fetal bovine serum, […] of Hepes, 100 μg/ml of streptomycin and 100 U/ml of penicillin G. The T-lymphocytes (1×10^5), 5 μg/ml of Con A and PLIPASTATIN A1 or B1 were added in that order to the wells and said medium was then added to the wells to make a total of 0.2 ml. The resulting mixture was incubated for 72 hours. The mixture was pulse-labeled with [^3 H]-thymidine at 8 hours before terminating the cultivation. […]

[7] = system: Con A-stimulated T-lymphocytes; assay: Reaction of T-lymphocyte blastogenesis, [3H]-thymidine uptake; format: cell-based, BALB/c mice; conditions: 100 μg/ml (given for Plipastatin A1; not given for B1); 5 μg/ml Con A, 72 hours
Procedure: as §4, §5, §6

[8] = system: delayed-type hypersensitivity (DTH) in CDF1 mice; assay: Cell-mediated immunity: delayed-type hypersensitivity (DTH) to SRBC, footpad swelling; format: in vivo; conditions: for Thickness of footpad: 24 h after secondary SRBC challenge, CDF1 mice; for Percentage with respect to the control: footpad swelling, control = 100%
Text: This experiment illustrates the effects on the cell-mediated immunity in normal mice.
The activities of Plipastatin A1 and B1 on cell-mediated immunity were studied in terms of delayed-type hypersensitivity (DTH) caused by inoculating mice with antigenic sheep red blood cells (SRBC) in one footpad (Reference: J. Exp. Med., 139, 1529-1539, 1974).
CDF1 mice (female, 8 week of age) were inoculated intravenously with a suspension of 5×10^5 SRBC in physiological saline. At the same time, a single dose of an aqueous solution of 5 mg/Kg or 0.5 mg/Kg of Plipastatin A1 or B1 was administered intraperitoneally to the mice. Four days after the injection, the mice were subjected to the secondary challenge by subcutaneous injection of the other footpad with a suspension of 10^8 SRBC in physiological saline. Twenty-four hours later, the degree of footpad swelling (increasing in the thickness of the footpad) was measured with a caliper. The cell-mediated immunity suppressive effects of the test compounds were determined by comparing the degree of footpad swelling in the treated animals with the degree of footpad swelling (100%) in untreated, control animals that were subcutaneously injected in their footpads with an aqueous solution of SRBC in physiological saline in stead of the test compounds.

[9] = system: PCA (Passive Cutaneous Anaphylaxis) reactions in rats of the S-D strain; assay: PCA (Passive Cutaneous Anaphylaxis) reaction, Evans blue patch; format: in vivo; conditions: for Development of blue patch +, number of animals in a group of five / Development of blue patch -, number of animals in a group of five / Development of blue patch ±, number of animals in a group of five: 150 μl intradermal 5 min before challenge
Procedure: The experiment described below was accomplished in accordance with conventional methods. (Reference: J. Immunology, 106, 1002-1011, 1971). Rats were sensitized with egg albumin antigen to obtain an anti-serum. The rats of the S-D strain (male, 8 wk of age) were passively sensitized by intradermal injection of 50 μl of the thus obtained anti-egg albumin serum on their backs. Forty-eight hours later, each rat was challenged by the intravenous injection of physiological saline containing egg albumin (2.5 mg) plus Evans blue (2.5 mg). Sixty minutes after the injection, any development of blue dye patch due to the extravasation of Evans blue at the sensitized site was checked. Five minutes before the challenge, the test compound (150 μl) was intradermally injected at the sensitized site. DSCG (disodium cromoglycate) was used as a control.

| Molecule | Degree of inhibition, IC50, phospholipase D [1] | Solubility [2] | Degree of inhibition, IC50, phospholipase A2 [4] | Degree of inhibition, IC50, phospholipase C [5] | Suppression of uptake of [3H]-thymidine into LPS-stimulated B-lymphocytes [6] | Suppression of uptake of [3H]-thymidine into Con A-stimulated T-lymphocytes [7] | Thickness of footpad ([8]; dose 0.5 mg/Kg single i.p.) | Percentage with respect to the control ([8]; dose 0.5 mg/Kg single i.p.) | Thickness of footpad ([8]; dose 5 mg/Kg single i.p.) | Percentage with respect to the control ([8]; dose 5 mg/Kg single i.p.) | Development of blue patch +, number of animals in a group of five ([9]; Conc. 59 μM) | Development of blue patch -, number of animals in a group of five ([9]; Conc. 59 μM) | Development of blue patch ±, number of animals in a group of five ([9]; Conc. 59 μM) | Development of blue patch +, number of animals in a group of five ([9]; Conc. 590 μM) | Development of blue patch -, number of animals in a group of five ([9]; Conc. 590 μM) | Development of blue patch ±, number of animals in a group of five ([9]; Conc. 590 μM) | other results |
| --- | --- | --- | --- | --- | --- | --- | --- | --- | --- | --- | --- | --- | --- | --- | --- | --- | --- |
| CCCCCCCCCCCCC[C@@H](O)CC(=O)N[C@@H](CCC(=O)O)C(=O)N[C@H](CCCN)C(=O)N[C@H]1Cc2ccc(cc2)OC(=O)[C@H]([C@@H](C)CC)NC(=O)[C@@H](Cc2ccc(O)cc2)NC(=O)[C@H](CCC(N)=O)NC(=O)[C@@H]2CCCN2C(=O)[C@@H](C(C)C)NC(=O)[C@H](CCC(=O)O)NC(=O)[C@@H]([C@@H](C)O)NC1=O [Plipastatin B1] ({Hexadecanoyl(3R-OH)}-E[dOrn]Y[d(aThr)]E[dV]PQ[dY]I; ester 3-C) | 2.8 µg/mL | Soluble in water, methanol, ethanol, and dimethyl sulfoxide; also recorded: Insoluble in organic solvents such as acetone, ethyl acetate, | 5.2 µg/mL | 3.6 µg/mL | 20% | 54% | 97 ± 44 × 10^-2 mm | 99% | 57 ± 31 × 10^-2 mm | 58% |  |  |  |  |  |  | LD50 [3]: 250 to 500 mg/kg |
| Plipastatin A2 | 3.8 µg/mL | Soluble in water, methanol, ethanol, and dimethyl sulfoxide; also recorded: Insoluble in organic solvents such as acetone, ethyl acetate, | 3.4 µg/mL | 4.0 µg/mL |  |  |  |  |  |  |  |  |  |  |  |  |  |
| O=C([O-])c1cc(=O)c2c(OCC(O)COc3cccc4oc(C(=O)[O-])cc(=O)c34)cccc2o1.[Na+].[Na+] [DSCG, disodium cromoglycate, reference compound] |  |  |  |  |  |  |  |  |  |  | 0 | 4 | 1 | 0 | 4 | 1 |  |
| Plipastatin A1 | 2.1 µg/mL | Soluble in water, methanol, ethanol, and dimethyl sulfoxide; also recorded: Insoluble in organic solvents such as acetone, ethyl acetate, | 4.3 µg/mL | 1.9 µg/mL | 15% | 52% | 63 ± 25 × 10^-2 mm | 64% | 48 ± 16 × 10^-2 mm | 49% | 0 | 4 | 1 | 0 | 5 | 0 | Development of blue patch +, number of animals in a group of five ([9]; Conc. 5.9 μM): 2; Development of blue patch -, number of animals in a group of five ([9]; Conc. 5.9 μM): 0; Development of blue patch ±, number of animals in a group of five ([9]; Conc. 5.9 μM): 3; Suppressive effects on PCA reactions ([9]; intradermal injections of 590 and 59 μM): comparable to those of DSCG |
| Plipastatin B2 | 3.3 µg/mL | Soluble in water, methanol, ethanol, and dimethyl sulfoxide; also recorded: Insoluble in organic solvents such as acetone, ethyl acetate, | 3.5 µg/mL | 4.5 µg/mL |  |  |  |  |  |  |  |  |  |  |  |  |  |
